The text below walks through data of paper PMC6713100, “Anticancer sulfonamide hybrids that inhibit bladder cancer cells growth and migration as tubulin polymerisation inhibitors” (Journal of Enzyme Inhibition and Medicinal Chemistry, 2019).

A word on the IC50: it is the concentration at which inhibition is half-maximal. By melting point is commonly meant the temperature of the solid-liquid transition.

One data set concerns HT-29 cell line. More on the design: method as in PMID 26774930. Particulars: read-out: IC50 HT-29 cell viability; cited from earlier work.
For a further data set, the system named is MCF-7 cells. Further details: method as in PMID 28802125. The following applies: read-out: IC50 MCF-7 antiproliferative activity; cited from earlier work.
The next data set deals with T47D cells. Further details: method as in PMID 28212337. The following applies: read-out: IC50 T47D anticancer activity in vitro; cited from earlier work.
The subject of another data set is MCF-7. In words: CCK8 antiproliferative assay, breast cancer cells. Particulars: Homo sapiens, MCF7, treatment for 48 h, means of three independent experiments. Type of data set: cell-based. In general terms: Tetrazolium dyes change colour on reduction, which living cells bring about.
The subject of another data set is SNU-423. In words: CCK8 antiproliferative assay, liver cancer cells. In kind it is cell-based. Particulars: Homo sapiens, treatment for 48 h, means of three independent experiments. On the procedure:
(§1) Breast cancer cells (MDA-MB-453), liver cancer cells (SNU-423), and bladder cancer cells (UM-UC-3, RT-112, RT4, T24) were purchased from the Shanghai culture company, and cultured at 37 °C in an atmosphere containing 5% CO2. 4,000 cells per well were seeded into a 96-well plate for 24 h and compounds were added to cluture 48 h. Next, 6 mg/ml CCK8 (20 µl) per well was added to explore the cell survival.
(§2) CCK8 method was used to investigate the anticancer activity in vitro of sulfonamide-dithiocarbamate hybrids 13a–13d against cancer cells for 48 h. MDA-MB-453 (breast cancer cells), SNU-423 (liver cancer cells) and RT-112 (bladder cancer cells) were selected to explore the antiproliferative activity. In this work, 5-fluorouracil (5-Fu) was used as the control drug.

Another data set concerns RT-112. In words: CCK8 antiproliferative assay, bladder cancer cells RT-112. In kind it is cell-based. The following applies: Homo sapiens, treatment for 48 h. The method, then:
as §1, §2
(§3) In order to explore the antiproliferation ability, four bladder cancer cell lines (UM-UC-3, RT-112, RT4 and T24) were selected and treated with the hybrid 13d in the 24-well plate for 48 h and 72 h. […] Compared with the cell proliferation of 48 h, the cell proliferation of 72 h was decreased.

In data set [1] the test system is MDA-MB-453, SNU-423 and RT-112. In words: CCK8 antiproliferative assay, all three cancer cells. Type of data set: cell-based. Particulars: CCK8, 48 h; read-out: IC50 against all three cancer cells. On the procedure: as §1, §2
The subject of a further data set is tubulin. Nature of the data set: Tubulin polymerisation assay in vitro. Type of data set: biochemical. Particulars: for IC50: 6 mg/ml tubulin, PEM buffer, 37 °C, read-out: IC50 tubulin polymerisation inhibitory activity in vitro. The method, then:
(§4) An amount of 6 mg/ml tubulin was resuspended in the PEM buffer (80 mM PIPES (pH 6.9), 1 mM EGTA, 0.5 mM MgCl2, […], 10.2% (v/v) glycerol) and then was preincubated with a sulfonamide-dithiocarbamate hybrid 13d on the ice. The reaction was monitored by a spectrophotometer (Beijng Tianhe Company) at 37 °C to obtain the results of tubulin polymerisation in vitro. RT-112 cells were treated with sulfonamide-dithiocarbamate hybrid 13d for 48 h. Then, slices were fixed by 4% paraformaldehyde for 20 min and washed by PBS for five times. 0.6% Triton-X-100 was added and 0.1% BSA was used to block. β-tubulin antibody was added to incubate overnight at 4 °C. DAPI was used to stain and then images were captured.
Tubulin polymerisation assay investigated that compound 13d inhibited tubulin polymerisation in a concentration dependent manner.

For the next data set, the system named is UM-UC-3. In words: Cell proliferation of bladder cancer cells UM-UC-3. The following applies: Homo sapiens, UMUC3; treatment for 48 h. Type of data set: cell-based. The method, then:
as §1, §3

Another data set deals with RT4. Nature of the data set: Cell proliferation of bladder cancer cells RT4. The following applies: Homo sapiens, RT-4; treatment for 48 h. In kind it is cell-based. The method, then:
as §1, §3

The next data set deals with T24. Nature of the data set: Cell proliferation of bladder cancer cells T24. In kind it is cell-based. Particulars: Homo sapiens, T-24; treatment for 48 h. On the procedure:
as §1, §3

For data set [2], the system named is RT-112 cells. Nature of the data set: Transwell migration assay. Type of data set: cell-based. The following applies: 48 h. The method, then: Transwell chamber was used to do migration assay according to the reported references[17]^,[18]. Ten thousand RT-112 cells containing compound 13d were seeded in the top chambers for 24 h incubation. The bottom chambers were fixed and stained with crystal violet for 2 h. Finally, the chambers were washed with water, and the top membrane was left to dry.
Based on the antiproliferative activity results, compound 13d was selected to investigate the anticancer mechanisms against the RT-112 cell line. Corning transwell plate was used to do migration assay against RT-112 cells for 48 h. With the treatment of sulfonamide-dithiocarbamate hybrid 13d at 0.5, 1 and 2 µM, the migration rate of RT-112 cells was 76%, 40% and 29%, respectively.

For data set [3], the system named is E-cadherin, N-cadherin, Vimentin, Snail and Slung in RT-112 cells. In words: Western blot of migration-related proteins. Type of data set: cell-based. The following applies: 48 h, 0.5, 1 and 2 µM. On the procedure: RT-112 cells were treated with compound 13d and then lysed in a RIPA lysis buffer. The protein samples of RT-112 cells were electrophoresed on SDS-PAGE. Nextly, targeted proteins were transferred to PVDF membrane and incubated with antibodies (E-cadherin, N-cadherin, Vimentin, Snail and Slung). The markers were visualised by chemiluminescence detection reagents.
To further characterise the migration effect of sulfonamide-dithiocarbamate hybrid 13d, the expression levels of migration-related proteins (E-cadherin, N-cadherin, Vimentin, Snail and Slung) were investigated against RT-112 cells. Compound 13d was treated for 48 h at concentrations of 0.5, 1 and 2 µM, respectively. […] In addition, hybrid 13d increased the expression of E-cadherin in a concentration manner.

The subject of data set [4] is RT-112 cells. In words: Immunostaining of microtubules (β-tubulin antibody). Type of data set: cell-based. The method, then:
as §4
Tubulin polymerisation inhibitory effects of the sulfonamide-dithiocarbamate hybrid 13d were further explored by the immunofluorescent staining in RT-112 cells. […] However, after the exposure to 0.25 µM of compound 13d, the microtubule organisation in the cytosol were disrupted.

Data set [5] relates to RT-112 cells. Nature of the data set: RT-112 xenograft nude mouse model. Type of data set: in vivo, nude mice. Particulars: 80 mg/kg intragastric, every day for 21 days. The method, then:
In vivo experiments were processed according to guidelines established by the ethics committee of the 4th affiliated hospital of CMU. Mice were implanted with RT-112 cells (1.5 × 10^7 cells per mouse) on the right flank of nude mice. The mice were divided into the saline group and sulfonamide-dithiocarbamate hybrid 13d (80 mg/kg) group (n = 5 mice for each group). Intragastric administration of hybrid 13d was performed every day for a period of 21 days.
In order to investigate the tumor growth effects of compound 13d, the xenograft nude mouse of RT-112 cells were established.

A value given as a limit tells only on which side of the number the result lay.

On to `NS(=O)(=O)c1ccc(Nc2nc(-c3ccc(Cl)cc3)nc3ccccc23)cc1` [Compound 2], for which, in the data set with HT-29 cell line, the IC50 is 5.45 µM.
Take `NS(=O)(=O)c1ccc(/N=C2\NC(=O)/C(=C3/C(=O)Nc4ccc(Cl)cc43)S2)cc1` [Compound 3]: in the data set on MCF-7 cells, the half-maximal inhibitory concentration (IC50) is 3.96 µM.
For `C#CCSc1ccnc2c(S(=O)(=O)N(C)CC#C)cccc12` [Compound 4], the half-maximal inhibitory concentration (IC50) in the data set with T47D cells was 270 nM.
As to `O=c1[nH]cc(F)c(=O)[nH]1` [Compound 5-Fu, 5-fluorouracil, reference compound], the concentration for half-maximal inhibition (IC50) in the data set on MCF-7 stood at 7.4 ± 0.5 µM; with SNU-423, 10.8 ± 0.7 µM; in the data set with RT-112 it was 13.6 ± 0.2 µM.
`COc1cc(NS(=O)(=O)c2cccc3cccnc23)cc(OC)c1OC` [Compound 11, N-(3,4,5-trimethoxyphenyl)quinoline-8-sulfonamide]: the melting point fell in the range of 181 to 183 °C. In the data set with MCF-7, the IC50 was > 40 µM. In addition, in the data set on SNU-423, the 50% inhibitory concentration (IC50) is > 40 µM. Moreover, in the data set on RT-112, the IC50 is > 40 µM. Moreover, the concentration for half-maximal inhibition (IC50) in [1] is > 40 µM.
With `COc1cc(N(CCCBr)S(=O)(=O)c2cccc3cccnc23)cc(OC)c1OC` [Compound 12, N-(3-bromopropyl)-N-(3,4,5-trimethoxyphenyl)quinoline-8-sulfonamide], the melting point was in the range of 129 to 131 °C. Further, the IC50 in the data set with MCF-7 is > 40 µM. In the data set with SNU-423, the IC50 is > 40 µM. Besides, the IC50 in the data set with RT-112 is > 40 µM. Besides, the IC50 in [1] is > 40 µM.
Molecule `COc1cc(N(CCCSC(=S)N2CCN(C)CC2)S(=O)(=O)c2cccc3cccnc23)cc(OC)c1OC` [Compound 13a, 3-(N-(3,4,5-trimethoxyphenyl)quinoline-8-sulfonamido)propyl-4-methylpiperazine-1-carbodithioate] gave a melting point of 96 to 98 °C. This molecule yielded an IC50 in the data set on MCF-7 of 6.4 ± 1.2 µM. The IC50 in the data set on SNU-423 worked out at 8.7 ± 0.9 µM. In addition, half-maximal inhibition in the data set on RT-112 (IC50) was put at 7.8 ± 0.4 µM.
The matching figures for `CCN1CCN(C(=S)SCCCN(c2cc(OC)c(OC)c(OC)c2)S(=O)(=O)c2cccc3cccnc23)CC1` [Compound 13b, 3-(N-(3,4,5-trimethoxyphenyl)quinoline-8-sulfonamido)propyl-4-ethylpiperazine-1-carbodithioate]: 131 to 133 °C, 8.5 ± 0.7 µM, 5.4 ± 0.3 µM and 6.8 ± 0.7 µM.
With `COc1cc(N(CCCSC(=S)N2CCN(CCO)CC2)S(=O)(=O)c2cccc3cccnc23)cc(OC)c1OC` [Compound 13c, 3-(N-(3,4,5-trimethoxyphenyl)quinoline-8-sulfonamido)propyl-4–(2-hydroxyethyl)piperazine-1-carbodithioate], the melting point is 106 to 108 °C. In the data set on MCF-7, the 50% inhibitory concentration (IC50) amounted to 4.2 ± 0.1 µM. In the data set on SNU-423, this molecule showed an IC50 of 3.6 ± 0.7 µM. In the data set with RT-112, this molecule had an IC50 of 4.1 ± 0.6 µM. In addition, the IC50 with tubulin came to 3.4 µM. The tubulin polymerisation inhibition entry in the data set on tubulin (at 2 µM) is on record as “weak inhibition”. In addition, the tubulin polymerisation inhibition entry with tubulin (at 6 µM) is given as “significantly inhibited”.
Take `COc1cc(N(CCCSC(=S)N2CCN(C(C)=O)CC2)S(=O)(=O)c2cccc3cccnc23)cc(OC)c1OC` [Compound 13d, 3-(N-(3,4,5-trimethoxyphenyl)quinoline-8-sulfonamido)propyl-4-acetylpiperazine-1-carbodithioate]: the melting point lay within 128 to 129 °C. In the data set on MCF-7, this molecule displayed an IC50 of 2.8 ± 0.2 µM. This molecule also gave a half-inhibitory concentration (IC50) with SNU-423 of 3 ± 0.1 µM. This molecule also had an IC50 in the data set with RT-112 of 0.7 ± 0.1 µM. In the data set with UM-UC-3, this molecule registered an IC50 of 900 nM. The IC50 in the data set with RT4 stood at 1900 nM. 2600 nM corresponded to half-maximal inhibition with T24 (IC50). In the data set with RT-112 cells [2] (13d at 0.5 µM), the “migration rate of RT-112 cells” value is reported as 76%. For the same molecule, in the data set with RT-112 cells [2] (13d at 1 µM), the “migration rate of RT-112 cells” value is 40%. The “migration rate of RT-112 cells” value in the data set on RT-112 cells [2] (13d at 2 µM) is 29%. Also, in data set [3], the “expression of E-cadherin” value is on record as “increased”, the “expression of N-cadherin” value is recorded as “decreased”, the “expression of Slung” value is reported as “decreased” and the “expression of Snail” value is “decreased”. In [3], the “expression of Vimentin” value is recorded as “decreased”. Besides, the half-inhibitory concentration (IC50) in the data set on tubulin worked out at 2.9 µM. Moreover, the tubulin polymerisation inhibition result with tubulin (at 2 µM) is “weak inhibition”. For the same molecule, in the data set on tubulin (at 6 µM), the tubulin polymerisation inhibition entry is “significantly inhibited”. In the data set on RT-112 cells [4] (0.25 µM), the “microtubule organisation in the cytosol” value was “disrupted”. Besides, the “changes of the mitotic spindles” value in the data set with RT-112 cells [4] (0.5 µM) was “more clearly observed”. Besides, in the data set with RT-112 cells [5], the average tumor weight turned out to be 0.51 ± 0.21 g, the “body weights versus control group” value is “no significant difference”, the “inhibitory rate (tumor weight)” value is given as 66.67% and the “tumor volume versus control group” value was “obviously less than that of the control group”.
